“Also recorded” adds a separate entry of the source.
Legend:
Type in all cases: cell-based, mouse
[1] = test system: nuclear translocation of ERK1/2; experiment: Nuclear localization of pERK in cultured OPCs (immunolabeling pERK, PLP, Dapi); conditions: Gpr37−/− OPCs (DIV7)
Description: (§1) FIGS. 11A-B illustrate that EPE blocks the nuclear translocation of pERK in Gpr37 null oligodendrocytes. A. Cultured OPCs isolated from WT and Gpr37^−/− mice were grown for 3 days (DIV2-DIVS) in the presence or absence (control) of EPE, followed by immunolabeling with antibodies to pERK and PLP. The nuclei were labeled with Dapi. PLP and pERK immunoreactivity are shown in separate images along with the Dapi signal. Higher magnification of the nucleus is shown in the insets in each panel. […] Scale bar, 50 μm. […] Cultures were grown in the absence (DME), or presence of EPE, PLX4032, or DMSO as control for 6 days, and then fixed at DIV7 and labeled with antibodies to Olig2. The number of positive cells per field of view is shown in the graph. Bars represent mean±SEM (n=3 different cultures per each genotype; 10 fields of view were analyzed for each culture).
FIGS. 12A-D illustrate the involvement of cAMP in Gpr37 signaling in oligodendrocytes. A-B. Absence of Gpr37 results in increased levels of cAMP in mice brain (A) and cultured OPCs (B). Intracellular cAMP was extracted from P70 mice brains (*P<0.05, t-test; n=6 WT and n=7 KO mice), or from DIV5 cultured OPCs (*P<0.01, t-test; n=3 different OPC primary cultures of each genotype) and detected by ELISA. C. Adenylate cyclase inhibition prevents the nuclear translocation of pERK in Gpr37^−/− OPCs. Cultured wild type (WT) and Gpr37^−/− OPCs (DIV7) were left untreated (control) or treated with the adenylyl cyclase inhibitor SQ22536 (0.1 mM) for 2 hours in their growth medium. Cells were then fixed and labeled with Dapi to mark their nuclei, and with antibodies to PLP and pERK. […] Bars show mean±SEM (*P<0.01, t-test; n=3 different primary cultures for each genotype; 50 PLP-positive cells were counted per each culture).
FIGS. 13A-B illustrate that inhibition of Epac activity attenuates nuclear translocation of ERK1/2 in oligodendrocytes lacking GPR37. […] Bars show mean±SEM (*P<0.05, **P<0.01, t-test; n=3 different primary cultures for each genotype; 100 PLP-positive cells were counted per each culture). […]

[2] = test system: wild type OPC cultures; experiment: Oligodendrocyte differentiation in wild type OPC cultures (PLP and O4 immunolabeling); conditions: wild type OPC cultures grown four days with 1mM IBMX
Description: A. Immunolabeling of wild type OPC cultures grown for four days in the absence (Control) or presence of 1mM 3-isobutyl-1-methylxanthine (IBMX) using antibodies to PLP and O4. Dapi was used to label the nuclei. Scale bar, 50 μm. B. Percentage of PLP-positive oligodendrocytes among the total O4-positive cells (**P<0.01, t-test, n=3 cultures). Bars represent mean±SEM.
Immunofluorescence and Immunoblotting For immunohistochemistry, mice were anesthetized and perfused with 2% PFA/PBS. Brains and optic nerves were isolated and post fixed on ice for 15 min, followed by 30% sucrose/ PBS at 4° C. overnight. Tissues were embedded in OCT and sectioned. Sections were permeabilized in methanol at −20° C. for 5 min. Immunostaining of GPR37 was carried out using 2%PFA-perfused mouse brain sections that were permeabilized with cold acetone and blocked with 5% fish gelatin and 0.5% Triton-X100 at RT for 1 hr. For immunocytochemistry, cells were fixed with 4% PFA/ PBS for 15min at room temperature. For O4 staining, live cells were incubated with medium containing the O4 antibody at 37° C. for 45min before fixation. […] Western blot analysis was done using OPC cultures lysed in loading buffer and chemiluminescence was detected using the ChemiDoc MP System (Bio-Rad). […]

[3] = test system: oligodendrocytes co-cultured with DRG neurons; experiment: OPC/DRG neuron co-cultures: PLP-positive oligodendrocytes associated with axonal Caspr clustering
Excerpt: FIGS. 5A-H illustrate that Gpr37-dependent inhibition of oligodendrocyte differentiation is mediated by ERK phosphorylation and nuclear translocation. A. Immunolabeling of sagittal brain sections of P12 brain stems from wild type (WT) and KO (Gpr37^−/−) mice using antibodies to phosphorylated ERK (pERK) and Olig2. B. The number of pERK and Olig2 positive cells in Gpr37^−/− compared to WT brainstem (*P<0.05, n=5 images from two mice per genotype). C. Western blot analysis of purified OPC cultures at DIV7 (three cultures per each genotype are shown). Blots were incubated with antibodies to pERK or general ERK (ERK) as indicated. D. Relative value of pERK intensity normalized by general ERK (p=0.02, n=7 cultures each genotype). E. pERK is present in the nucleus of oligodendrocytes lacking Gpr37. […] (* p<0.05, n=3 different primary cultures for each genotype; 100 PLP-positive oligodendrocytes were counted per each culture). […] H. Quantitation of the results showing the fold change in the percent of PLP-positive cells that associate with axonal Caspr immunoreactivity in all samples compare to the non-treated wild type cultures. […]
Immunofluorescence and Immunoblotting For immunohistochemistry, mice were anesthetized and perfused with 2% PFA/PBS. […] Western blot analysis was done using OPC cultures lysed in loading buffer and chemiluminescence was detected using the ChemiDoc MP System (Bio-Rad). […]

[4] = test system: oligodendrocytes co-cultured with DRG neurons; experiment: Number of Olig2 cells in oligodendrocyte/DRG neuron co-cultures; conditions: both genotypes (WT and Gpr37−/−); 6 days treatment, fixed at DIV7
Description: as §1
Immunofluorescence and Immunoblotting For immunohistochemistry, mice were anesthetized and perfused with 2% PFA/PBS. Brains and optic nerves were isolated and post fixed on ice for 15 min, followed by 30% sucrose/ PBS at 4° C. overnight. Tissues were embedded in OCT and sectioned. Sections were permeabilized in methanol at −20° C. for 5 min. […] Western blot analysis was done using OPC cultures lysed in loading buffer and chemiluminescence was detected using the ChemiDoc MP System (Bio-Rad). […]

## CC(C)(C)c1cc(C(=O)/C(C#N)=N/Nc2cccc(Cl)c2)no1 [ESI-09]
[1]; ESI-09 1 μM for 2 hours, vs DMSO
  number of oligodendrocytes displaying nuclear localization of pERK (ERK1/2): significant decrease; also recorded: reduced to equivalent level of wild type cells

## CC(C)Cn1c(=O)n(C)c(=O)c2[nH]cnc21 [IBMX, 3-isobutyl-1-methylxanthine]
[2]
  oligodendrocyte differentiation (percentage of PLP-positive oligodendrocytes among total O4-positive cells): enhances the differentiation; also recorded: enhances oligodendrocyte differentiation

## CCCS(=O)(=O)Nc1ccc(F)c(C(=O)c2c[nH]c3ncc(-c4ccc(Cl)cc4)cc23)c1F [PLX4032]
[3]; Gpr37−/− oligodendrocytes with wild type DRG neurons, 6 days in 10 μM EPE or 1 μM PLX4032, vs DMSO control
  number of PLP-positive oligodendrocytes associated with intense axonal clustering of Caspr: completely abolished; also recorded: significantly low number
[3]; wild type cultures, 6 days in 10 μM EPE or 1 μM PLX4032
  PLP-positive oligodendrocytes associated with axonal clustering of Caspr: no effect
[4]
  number of Olig2 cells (per field of view): do not affect

## Nc1ncnc2c1ncn2C1CCCO1 (stereo not shown) [SQ 22536]
[1]; SQ22536 0.1 mM for 2 hours
  number of oligodendrocytes displaying nuclear localization of pERK (ERK1/2): significant decrease
[1]; SQ22536 0.1 mM for 2 hours, listed as SQ22536
  number of oligodendrocytes displaying nuclear localization of pERK (ERK1/2): reduced to equivalent levels of wild type cells

From patent US20190216891A1, “METHOD FOR MODULATING MYELINATION” (Yeda Research and Development Co., Ltd., priority 2016, published 2019)
